# pIC50: −log10 of the molar value.
# Legend:
# [1] = biological target: T1, Proton Pump (H^+ /K^+ ATPase) (Oryctolagus cuniculus, UniProt P27112); experiment: Inhibition of Proton Pump (H+/K+ ATPase) Activity, in vitro enzyme reaction (Experiment 1); type: biochemical, New Zealand white rabbit; settings: for Effect ratio: IC50 of Omeprazole / IC50 of test compound; for pIC50: K+-stimulated H+/K+ ATPase activity, rabbit gastric microsomes, pH 7.2, 37° C., 15 min prereaction, 30 min reaction, read-out: IC50 of test compound, inhibition (50%) of the proton pump activity
# T1 construct: The microsomes thus obtained were used as an enzyme source of the in vitro enzyme reaction study of proton pump; from tissue; host or cells: rabbit stomach, mucosal scrapings, microsomes (180,000 g pellet)
# T1 sequence (P27112 whole entry): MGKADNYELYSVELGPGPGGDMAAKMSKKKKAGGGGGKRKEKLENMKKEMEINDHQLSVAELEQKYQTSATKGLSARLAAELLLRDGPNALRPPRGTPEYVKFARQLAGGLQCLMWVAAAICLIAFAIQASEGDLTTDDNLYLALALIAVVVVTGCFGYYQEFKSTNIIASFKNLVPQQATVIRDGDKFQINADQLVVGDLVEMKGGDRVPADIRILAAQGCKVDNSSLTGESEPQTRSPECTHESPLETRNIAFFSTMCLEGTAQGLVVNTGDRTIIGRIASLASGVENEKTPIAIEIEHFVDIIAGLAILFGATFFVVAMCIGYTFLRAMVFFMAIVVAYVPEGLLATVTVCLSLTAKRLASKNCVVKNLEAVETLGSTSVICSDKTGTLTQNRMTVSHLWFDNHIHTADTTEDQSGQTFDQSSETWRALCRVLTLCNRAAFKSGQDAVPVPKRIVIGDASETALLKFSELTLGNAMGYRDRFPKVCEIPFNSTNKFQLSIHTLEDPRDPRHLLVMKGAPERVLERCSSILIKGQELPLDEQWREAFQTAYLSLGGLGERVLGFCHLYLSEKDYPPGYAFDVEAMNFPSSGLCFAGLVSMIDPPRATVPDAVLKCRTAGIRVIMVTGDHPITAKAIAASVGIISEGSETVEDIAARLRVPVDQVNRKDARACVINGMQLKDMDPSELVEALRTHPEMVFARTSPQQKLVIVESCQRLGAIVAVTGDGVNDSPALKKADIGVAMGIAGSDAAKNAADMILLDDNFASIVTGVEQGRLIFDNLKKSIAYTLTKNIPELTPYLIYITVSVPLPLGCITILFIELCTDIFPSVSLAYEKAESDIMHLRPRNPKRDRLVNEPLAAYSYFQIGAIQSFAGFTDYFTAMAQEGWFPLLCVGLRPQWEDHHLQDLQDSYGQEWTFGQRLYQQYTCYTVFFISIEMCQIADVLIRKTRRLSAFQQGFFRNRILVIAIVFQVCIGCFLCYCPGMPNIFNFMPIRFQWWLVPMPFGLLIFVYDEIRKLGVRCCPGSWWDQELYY
# T1 sequence (P18597 whole entry partner): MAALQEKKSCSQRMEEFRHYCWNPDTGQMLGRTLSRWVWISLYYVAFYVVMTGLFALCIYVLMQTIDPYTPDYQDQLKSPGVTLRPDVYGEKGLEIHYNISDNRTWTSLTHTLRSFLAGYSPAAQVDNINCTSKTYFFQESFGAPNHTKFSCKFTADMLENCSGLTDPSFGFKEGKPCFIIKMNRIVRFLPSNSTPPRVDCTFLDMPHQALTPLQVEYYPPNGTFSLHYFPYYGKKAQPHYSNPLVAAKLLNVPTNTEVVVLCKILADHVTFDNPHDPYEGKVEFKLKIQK
# Method: A New Zealand white rabbit was killed by blowing its head and the stomach was taken out. The contents of the stomach were removed and the stomach walls were washed with was saline. The inner wall of the stomach was scratched out with a slide glass and the cells thus obtained were homogenized in 0.25M sucrose buffer by means of a Teflon-glass homogenizer. The homogenous solution was centrifuged at 10,000 g for 10 minutes and the supernatant was further centrifuged at 20,000 g for 20 minutes. The supernatant thus obtained was centrifuged at an ultra-high speed of 180,000 g for 1 hour. The pellets precipitated were collected by discarding the supernatant and suspended in 50 mM Tris-HCl buffer having pH 7.2. The suspension was dialyzed twice with the same buffer(of 1,000 times volume) for 3 hours and stored into liquid nitrogen.
# The above centrifugation and dialysis were carried out at 4° C. The microsomes thus obtained were used as an enzyme source of the in vitro enzyme reaction study of proton pump.
# The inhibitory effects of proton pump activity by the compounds of the present invention were measured by the in vitro enzyme reaction study. The proton pump activity stimulated by Mg^++ was used as a negative comparative group, and the activity stimulated by Mg^++ and K^+ was used as a positive comparative group. The comparative compound was omeprazole.
# Test tubes were divided into 4 groups: Group 1 as negative comparative group(n=3), Group 2 as positive comparative group(n=3), Group 3(n=5) to be administered with the compound of the present invention and Group 4(n=5) to be administered with the comparative compound. The inhibitory effects of proton pump activity of Groups 3 and 4 were measured by employing the compound prepared in Example 34 and omeprazole, respectively, each of which was dissolved in dimethylsulfoxide at 5 different concentrations.
# To each of Groups 1, 2, 3 and 4, were added 0.1 ml of magnesium chloride(40 mM) dissolved in 50 mM Tris-HCl buffer (pH 7.2) and […] of the enzyme source prepared in Experiment 1-1. Then, 0.1 ml of potassium chloride(500 mM) and 0.1 ml of ammonium chloride(100 mM) dissolved in 50 mM Tris-HCl buffer(pH 7.2) were added to all groups except for Group 1.
# 0.1 ml of dimethylsulfoxide was added to each of Groups 1 and 2; and to Group 3 was added 0.01 ml of the solution in which the compound prepared in Example 34 was dissolved in dimethylsulfoxide at 5 different concentrations. To Group 4, 0.01 ml of the solution prepared by dissolving omprazole in dimethylsulfoxide at 5 different concentrations(37.6, 21.4, 12.2, 7.0 and 4.0 μM) was added. 50 mM Tris-HCl buffer was added thereto so as to make the total volume 0.4 ml.
# Thereafter, the test tubes of each Group were placed at 37° C. for 15 minutes for the prereaction. 0.1 ml of ATP solution(33.3 mM), which was prepared by adding Tris-ATP 50 mM to Tris-HCl buffer having pH 7.2, was added until the reaction volume became 0.5 ml. The final concentrations of MgCl2, KCl, NH4 Cl, ATP, enzyme and Tris-HCl were 8 mM, 100 mM, 20 mM, 6.7 mM, 100μg/ml and 50 mM, respectively. After the reaction was carried out at 37° C. for 30 minutes, 25% cold trichloroacetic acid was added to terminate the enzyme reaction. The released inorganic phosphate was measured by an automatic analyzer(SBA 300, Gilford).
# The difference between Group 1 and Group 2 represents the proton pump activity activated by K^+ only. The inhibition percentages of Groups 3 and 4 were calculated from Litchfield-wilcoxon equation[see J. Pharmacol. Exptl. Ther. 96, 99(1949)]. The concentrations of the test compounds which inhibit 50% of the proton pump activity are represented as IC50 in Table 1.
# gastric secretion = experiment: Inhibition of Gastric Secretion, pylorus-ligated rats (Experiment 2); type: in vivo, Sprague-Dawley rats; settings: relative to omeprazole (equation III), 20 mg/kg intraduodenally, pylorus-ligated rats, 5 hours
# Method: In accordance with the method disclosed in Shay, H., et al., Gastroenterology 5, 43-61(1945), Experiment 2 was carried out.
# Sprague-Dawley rats having a body weight of 170±10 g were divided into 3 groups(n=5) and deprived of food for 24 hours before the experiment with free access to water. Under ether anesthesia, the abdomen was incised, and the pylorus was ligated. As a comparative group, Group 1 was administered intraduodenally in a volume of 0.5 ml/200 g of 30% aqueous polyethylene glycol 400 solution. Groups 2 and 3 were administered intraduodenally with the compound of Example 34 and omeprazole, respectively, each of which was suspended in 30% aqueous polyethylene glycol 400 solution at a concentration of 20 mg/kg. After closing the abdominal cavity, the rats were placed for 5 hours and then killed by cervical dislocation. The stomach was extracted to obtain gastric juice.
# The gastric juice was centrifuged at 1,000 g to remove precipitates. The amount and acidity of the gastric juice were measured. Relative volumes, relative acid concentrations and relative acid outputs of the test compounds were calculated from equations(I), (II) and (III) and the results are shown in Table 2.
# (I) = the average amount of gastric juice of Group 1 - the
# average amount of gastric juice of Group 2)/(the average
# amount of gastric juice of Group 1 - the average amount
# of gastric juice of Group 3)
# Relative acid concentration
# (II) = (the average acidity of Group 1 - the average
# acidity of Group 2)/(the average acidity of Group 1 - the average
# (III) = (the total amount of acid output of Group 1 - the
# total amount of acid output of Group 2)/(the total amount of acid
# output of Group 1 - the total amount of acid output of Group
Compound,Effect ratio [1],pIC50 [1],Relative Acid Output (gastric secretion)
"COc1cccc2c(N3CCc4cccc(C)c4C3C)nc(Nc3ccc(F)cc3)nc12.Cl (stereo not drawn) [Example 52, 2-(4-Fluorophenylamino)-8-Methoxy-4-(1,8-Dimethyl-1,2,3,4-Tetrahydroisoquinoline-2-Yl)Quinazoline Hydrochloride]",1.26,5.12,0.79
"COc1cccc2c(N3CCc4ccccc4C3)nc(N(C)c3ccccc3)nc12.Cl [Example 29, 8-Methoxy-2-(N-Methylphenyl-Amino)-4-(1,2,3,4-Tetrahydroisoquinoline-2-Yl)Quinazoline Hydrochloride]",1.47,5.31,0.84
"COc1cccc2c(N3CCc4ccccc4C3C)nc(N(C)c3ccccc3)nc12.Cl (stereo not drawn) [Example 40, 8-Methoxy-2-(N-Methylphenyl-Amino)-4-(1-Methyl-1,2,3,4-Tetrahydroisoquinoline-2-Yl) Quinazoline Hydrochloride]",8.15,5.89,0.82
"COc1cccc2c(N3CCc4ccccc4C3C)nc(Nc3ccc(F)cc3C)nc12.O=C(O)CC(O)C(=O)O (stereo not drawn) [Example 61, 2-(4-Fluoro-2-Methylphenyl-Amino)-8-Methoxy-4-(1-Methyl-1,2,3,4-Tetrahydroisoquinoline-2-Yl)Quinazoline Malate]",4.42,5.68,0.76
"COc1cccc2c(N3CCc4cccc5c4C3CC5)nc(Nc3ccc(F)cc3C)nc12.Cl (stereo not drawn) [Example 59, 8-Methoxy-2-(4-Fluoro-2-Methyl-Phenylamino)-4-(1,8-Ethano-1,2,3,4-Tetrahydroisoquinoline-2-Yl)Quinazoline Hydrochloride]",1.77,5.32,0.83
"COc1cccc2c(N3CCc4ccccc4C3CF)nc(Nc3ccc(F)cc3C)nc12.Cl (stereo not drawn) [Example 44, 2-(4-Fluoro-2-Methylphenyl-Amino)-8-Methoxy-4-(1-Fluoromethyl-1,2,3,4-Tetrahydroisoquinoline-2-Yl)Quinazoline Hydrochloride]",~ 0.97,~4.90,0.75
"COc1cccc2c(N3CCc4cccc(C)c4C3C)nc(Nc3ccc(F)cc3C)nc12.Cl (stereo not drawn) [Example 53, 2-(4-Fluoro-2-Methylphenyl-Amino)-8-Methoxy-4-(1,8-dimethyl-1,2,3,4-Tetrahydroisoquinoline-2-Yl)Quinazoline Hydrochloride]",4.75,5.70,0.92
"Cl.c1ccc(Nc2nc(N3CCc4ccccc4C3)c3ccccc3n2)cc1 [Example 18, 2-(Phenylamino)-4-(1,2,3,4-Tetrahydroisoquinoline-2-Yl)Quinazoline Hydrochloride]",61.67,6.22,0.29
"COc1cccc2c(N3CCc4ccccc4C3)nc(Nc3ccc(F)cc3)nc12.Cl [Example 30, 8-Methoxy-2-(4-Fluorophenyl-Amino)-4-(1,2,3,4-Tetrahydroisoquinoline-2-Yl)Quinazoline Hydrochloride]",3.27,5.66,0.76

# From US5686458A, “Quinazoline deriviates for treating peptic ulcer” (Yuhan Corporation, priority 1992, dated 1997)
